Where “and” joins values, the source holds several entries; their conditions need not be identical. Equal entries are not always repeated.
molecular target: CDK2 (human) (UniProt P24941); experiment: Enzyme Assay

IC50 | Structure (SMILES)
> 5000 nM | C1=CCOCc2cc(ccc2OCCN2CCCC2)Nc2nccc(n2)C2=CC=C(COC1)O2
≤ 1000 nM | CN1Cc2cccc(c2)Nc2nccc(n2)-c2cccc(c2)OCCC2CC2C1 (stereo unspecified)
1000 to 5000 nM | Fc1cc2cc(c1)-c1ccnc(n1)Nc1ccc(OCCN3CCCC3)c(c1)COCC=CCCO2
> 5000 nM | COc1ccc2cc1COCC=CCOCc1cc(ccc1OCCN1CCCC1)Nc1nccc-2n1
≤ 1000 nM | CN1CC=CCOCC2=CC=C(O2)c2ccnc(n2)Nc2cccc(c2)C1
> 5000 nM | O=C1NCC=CCOCc2cccc(c2)Nc2nccc(n2)-c2cccc1c2
≤ 1000 nM | CN1CC=CCCOc2cccc(c2)-c2ccnc(n2)Nc2cc(N)cc(c2)C1
≤ 1000 nM | CN1CC=CCCOc2cccc(c2)-c2ccnc(n2)Nc2ccc(OCCN3CCCC3)c(c2)C1
1000 to 5000 nM | CN1CC=CCC(=O)Nc2cccc(c2)-c2ccnc(n2)Nc2cccc(c2)C1
> 5000 nM | C1=CCOCc2cc(ccc2OCCN2CCCC2)Nc2nccc(n2)C2=CC=C(COC1)S2
≤ 1000 nM | CN1CC=CCCOc2cc(ccc2N)-c2ccnc(n2)Nc2cccc(c2)C1
≤ 1000 nM | CN1CC=CCCOc2cccc(c2)-c2ccnc(n2)Nc2ccc(OCCN3CCCCC3)c(c2)C1
≤ 1000 nM | Cc1cnc2nc1-c1cccc(c1)OCCC=CCN(C)Cc1cccc(c1)N2
1000 to 5000 nM | COc1cc2cc(c1OCCN1CCCC1)COCC=CCOCc1cccc(c1)-c1ccnc(n1)N2
> 5000 nM | CN1CCN(c2ccc3cc2COCC=CCOCc2cccc(c2)-c2ccnc(n2)N3)CC1
1000 to 5000 nM | C1=CCOCc2cc(ccc2OCCN2CCCC2)Nc2nccc(n2)-c2cncc(c2)COC1
> 5000 nM | CCN(CC)CCOc1ccc2cc1COCC=CCCOc1cccc(c1)-c1nc(ncc1C)N2
≤ 1000 nM | CN1CC=CCCOc2cccc(c2)-c2ccnc(n2)Nc2ccc(N3CCOCC3)c(c2)C1
≤ 1000 nM | CCN(CC)CCOc1ccc2cc1CN(C)CC=CCCOc1cccc(c1)-c1ccnc(n1)N2
1000 to 5000 nM | c1cc2cc(c1)-c1ccnc(n1)Nc1ccc(OCCN3CCCC3)c(c1)COCC1CC1COC2 (stereo unspecified)
1000 to 5000 nM | CCN(CC)CCOc1ccc2cc1COCC=CCOCc1cccc(c1)-c1ccnc(n1)N2

IC50 | Structure (SMILES)
> 5000 nM | C1=CCOCc2cc(ccc2OCCN2CCCC2)Nc2nccc(n2)-c2csc(c2)COC1
> 5000 nM | CCN(CC)CCOc1ccc2cc1COCC=CCCOc1cccc(c1)-c1ccnc(n1)N2
≤ 1000 nM and > 5000 nM | COc1ccc2cc1COCC=CCOc1cccc(c1)-c1ccnc(n1)N2
1000 to 5000 nM | O=C1CCC=CCOCc2cccc(c2)Nc2nccc(n2)-c2cccc(c2)N1
≤ 1000 nM | CN1CC=CCCOc2cccc(c2)-c2ccnc(n2)Nc2ccc(OCCN3CCOCC3)c(c2)C1
1000 to 5000 nM | CN1CC=CCCOc2cccc(c2)-c2ccnc(n2)Nc2cc(ccn2)C1
≤ 1000 nM | C1=CCNCc2cccc(c2)Nc2nccc(n2)-c2cccc(c2)OCC1
≤ 1000 nM | C1=CCN(C2CC2)Cc2cccc(c2)Nc2nccc(n2)-c2cccc(c2)OCC1
> 5000 nM | C1=CCOCc2cc(ccc2OCCN2CCCC2)Nc2nccc(n2)-c2cc(co2)COC1
> 5000 nM | C1=CCOCc2cc(ccc2N2CCOCC2)Nc2nccc(n2)-c2cccc(c2)COC1
> 5000 nM | C1=CCOCc2cc(ccc2OCCN2CCCC2)Nc2nccc(n2)-c2coc(c2)COC1
≤ 1000 nM | CN1CC=CCCOc2cc(F)cc(c2)-c2ccnc(n2)Nc2cccc(c2)C1
≤ 1000 nM | CN1CC=CCCOc2cccc(c2)-c2ccnc(n2)Nc2ccc(OCCn3cncn3)c(c2)C1
≤ 1000 nM | CN1CC=CCCOc2cc(F)cc(c2)-c2ccnc(n2)Nc2ccc(OCCN3CCCC3)c(c2)C1
1000 to 5000 nM | Fc1ccc2cc1COCC=CCOCc1cc(ccc1OCCN1CCCC1)Nc1nccc-2n1
1000 to 5000 nM | C1=CCOCc2cc(ccc2OCCN2CCCC2)Nc2nccc(n2)-c2cccc(c2)COC1
> 5000 nM | CCN(CC)CCOc1ccc2cc1COCC=CCCOc1cc(ccc1OC)-c1ccnc(n1)N2
≤ 1000 nM | CN1CC=CCOCC2=CC=C(S2)c2ccnc(n2)Nc2ccc(OCCN3CCCC3)c(c2)C1
≤ 1000 nM | C1=CCN(C2CC2)Cc2cc(ccc2OCCN2CCOCC2)Nc2nccc(n2)-c2cccc(c2)OCC1
≤ 1000 nM | CCS(=O)(=O)CCOc1ccc2cc1CN(C)CC=CCCOc1cccc(c1)-c1ccnc(n1)N2

Reference: the Kinase Knowledgebase extract (Sharma et al. 2016)
